# Earlier results, collected in article PMC6317935 (ChemistryOpen, 2018).
# Tested on: FXR
# Settings: read-out: EC50 (FXR agonist)
row,EC50 [µM],SMILES
2,0.025,"COC(=O)/C=C/c1cccc(N(Cc2ccc(-c3ccc(N(C)C)cc3)cc2)C(=O)C2CCCCC2)c1 [Compound 3, Fexaramine]"
3,0.004,"CC(C)OC(=O)C1=CN(C(=O)c2ccc(F)c(F)c2)CC(C)(C)c2c1[nH]c1ccccc21 [Compound 4, WAY‐362450]"
